Results as given in patent US20100113465A1, “7-AZASPIRO[3.5]NONANE-7-CARBOXAMIDE COMPOUNDS” (Pfizer Inc., priority 2008, published 2010).

How the values were obtained:
human FAAH = target: T1, human FAAH (Homo sapiens, UniProt O00519); experiment: FAAH assay, human FAAH enzyme inhibition (kinact/Ki); format: biochemical; details: oleamide substrate 50 μM, 30° C., read-out: hFAAH kinact/Ki
T1 construct: made in house; host or cells: E. coli
T1 sequence (O00519 1-579): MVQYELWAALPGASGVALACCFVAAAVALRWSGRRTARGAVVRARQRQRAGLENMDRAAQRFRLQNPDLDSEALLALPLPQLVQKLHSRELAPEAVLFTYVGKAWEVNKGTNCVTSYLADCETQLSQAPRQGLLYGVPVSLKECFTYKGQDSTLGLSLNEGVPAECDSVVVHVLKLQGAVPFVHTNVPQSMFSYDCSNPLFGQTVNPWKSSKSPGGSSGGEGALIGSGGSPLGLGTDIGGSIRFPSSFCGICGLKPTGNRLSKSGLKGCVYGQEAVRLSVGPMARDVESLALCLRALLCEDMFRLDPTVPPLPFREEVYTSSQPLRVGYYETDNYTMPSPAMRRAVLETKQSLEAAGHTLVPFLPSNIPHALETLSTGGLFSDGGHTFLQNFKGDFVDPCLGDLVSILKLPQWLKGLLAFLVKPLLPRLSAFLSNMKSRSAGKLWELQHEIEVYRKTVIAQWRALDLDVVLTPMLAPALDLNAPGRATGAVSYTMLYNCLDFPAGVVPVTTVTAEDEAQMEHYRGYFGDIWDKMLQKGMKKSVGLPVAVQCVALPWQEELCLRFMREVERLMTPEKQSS
Method: (§1) The FAAH assay was carried out in 384-well clear polystyrene plates (Evergreen Scientific) in a total volume of 50 μl per well in a manner similar to that described by Mileni et al., Proc. Nat. Acad. Sci. 2008, 105, 12820-12824. All percents are by volume. Serial dilutions of compound were initially prepared in 100% DMSO, and then diluted two-fold into HPLC-grade H2O to give 50% DMSO. To each well, was placed the reaction mixture (40 μl) containing 1-4 nM FAAH, 50 mM NaPi, pH 7.4, 3 mM α-ketoglutarate, 0.15 mM NADH, 7.5 U/ml glutamate dehydrogenase, 2 mM ADP, 1 mM EDTA, and 0.1% Triton X-100 (The concentration shown for each component is the final concentration in the assay). To this mixture, was added 5 μl of a compound of Examples 1 to 56 at various concentrations in 50% DMSO (or 5 μl 50% DMSO for controls). This was immediately followed by the addition of 5 μl oleamide (500 μM) dissolved in 75% EtOH/25% DMSO and the reaction mixture was mixed for 1.5 min. The final concentrations of DMSO and EtOH in the assay were each 7.5%. The reactions were incubated at 30° C. and the absorbance at 340 nm was collected over a period of 90 min with readings taken in 30-second intervals using SpectraMax Plus^384 Microplate Spectrophotometer (Molecular Devices, Sunnyvale, Calif.). The human FAAH and rat FAAH used in the assay was prepared as described in the patent application WO 2006/067613 using wild-type E. coli cells transformed in St. Louis, Mo., U.S.A. The purity of the enzyme was greater than 98% based on an analysis by SDS-polyacrylamide gel electrophoresis followed by Coomassie Blue staining.
(§2) Reaction progress curves were corrected for the non-enzymatic oxidation of NADH by subtraction of absorbancies at each time point obtained from control reactions containing no FAAH enzyme. The loss of enzyme activity as a function of time is well-described by the following mathematical equation (1) for a mono-exponential decay: […]
(§3) where At represents the absorbance at time t, A0 represents the absorbance at time zero, and C represents a constant. Observed rates of enzyme inactivation (kobs) were determined from the non-linear reaction progress curves by fitting the corrected absorbancies to an equation for a mono-exponential decay using the third-party Microsoft Excel plug-in, XLfit (IDBS Limited). Secondary plots of kobs vs. inhibitor concentration were prepared from kobs values obtained from progress curves. Second-order rates for enzyme inactivation, expressed as kinact/Ki (M^−1s^−1), were calculated from the slopes from linear regression analysis of the secondary plot of kobs vs. inhibitor concentration as defined in following equation (2), where [I]<<Ki:
(§4) The concentration of substrate in the assay was equal to the Km for oleamide of 50 μM. Therefore, reported kinact/Ki values are obtained by multiplying resulting slopes by a factor of two (i.e. slope=kinact/(Ki*2)).

Male Sprague-Dawley Rats = experiment: In vivo Complete Freund's Adjuvant (CFA) efficacy assay; parameters: species or system rat; key: (+) indicates the test compound was determined to be efficacious at 3 mpk, oral dosing; (−) indicates the test compound was determined to not be efficacious at 3 mpk, oral dosing; details: 3 mpk, oral dosing; inhibition of allodynia (PWT) four hours postdose vs vehicle, p<0.05
Method: For additional information on the CFA efficacy assay, see Jayamanne et al., Brit. J. Pharmacol. 2006, 147, 281-288. Experiments were performed on adult Male Sprague-Dawley Rats (200 g-250 g). Inflammation was induced in the left hindpaw of the rat by an intra-plantar injection of 150 uL Complete Freund's Adjuvant (CFA) (SIGMA F5881). The CFA injection immediately induces local inflammation, paw swelling, and pain that persists for at least two weeks post-injection. Baseline paw withdrawal threshold (PWT) was measured to determine the percent inhibition of allodynia using a set of Von Frey Hairs on day 4 post injection as illustrated by the Dixon Up and Down Method (W. J. Dixon, Ann. Rev. Pharmacol. Toxicol. 1980, 20:441-462). […] Test compound was administered at a concentration of 3 mg/kg (mpk) orally with the dosing vehicle 5% N,N′-Dimethylacetamide (SIGMA D137510) and 95% (40% 2-hydroxypropyl-beta-cyclodextrin in water) (SIGMA H107). Following Dose administration PWT threshold was evaluated again at four hours postdose. The Sprague-Dawley rats used in this assay were purchased from Harlan, 8520 Allison Pointe Blvd., Indianapolis, Ind., 46250, U.S.A. Sprague-Dawley rats are an outbred breed of albino rats first produced by the Sprague Dawley farms in Madison, Wis., U.S.A.
Percent Inhibition of Allodynia was determined by the formula: […]
ΔPWT measurements were averaged for each treatment group and statistical comparisons between groups were made using ANOVA and Dunnett's two-tailed test. […]

rat FAAH = target: T2, rat FAAH (Rattus norvegicus, UniProt P97612); experiment: FAAH assay, rat FAAH enzyme inhibition (kinact/Ki); format: biochemical; details: oleamide substrate 50 μM, 30° C., read-out: rFAAH kinact/Ki
T2 construct: made in house; host or cells: E. coli
T2 sequence (P97612 1-579): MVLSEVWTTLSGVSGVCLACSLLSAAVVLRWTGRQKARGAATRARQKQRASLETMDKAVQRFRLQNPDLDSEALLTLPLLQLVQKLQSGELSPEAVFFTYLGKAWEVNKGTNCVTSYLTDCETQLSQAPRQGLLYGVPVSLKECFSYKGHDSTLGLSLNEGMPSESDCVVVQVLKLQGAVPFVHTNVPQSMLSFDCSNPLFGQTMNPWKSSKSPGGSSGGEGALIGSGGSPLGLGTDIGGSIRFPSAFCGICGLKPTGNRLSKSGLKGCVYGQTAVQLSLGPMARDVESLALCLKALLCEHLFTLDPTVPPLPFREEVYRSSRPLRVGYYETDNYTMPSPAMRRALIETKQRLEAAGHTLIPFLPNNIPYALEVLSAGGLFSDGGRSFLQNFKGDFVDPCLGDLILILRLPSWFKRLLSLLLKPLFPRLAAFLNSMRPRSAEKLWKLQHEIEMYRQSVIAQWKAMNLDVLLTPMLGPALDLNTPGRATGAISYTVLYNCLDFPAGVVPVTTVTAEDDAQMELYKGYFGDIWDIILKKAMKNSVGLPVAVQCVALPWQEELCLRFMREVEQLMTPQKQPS
Method: as §1, §2, §3, §4

SMILES | kinact/KI (human FAAH) [M⁻¹ s⁻¹] | CFA Efficacy (Male Sprague-Dawley Rats) | kinact/KI (rat FAAH) [M⁻¹ s⁻¹]
Cc1noc(NC(=O)N2CCC3(CC2)CC(c2cccc(OCCOc4ccccc4)c2)C3)c1C [Example 26, N-(3,4-dimethylisoxazol-5-yl)-2-[3-(2-phenoxyethoxy)phenyl]-7-azaspiro[3.5]nonane-7-carboxamide] | 4480 | (+) | 1700
Cn1nnnc1NC(=O)N1CCC2(CC1)CC(c1cccc(C(F)(F)F)c1)C2 [Example 24, N-(1-methyl-1H-tetrazol-5-yl)-2-[3-(trifluoromethyl)phenyl]-7-azaspiro[3.5]nonane-7-carboxamide] | 12400 | (+) | 5750
Cn1nnnc1NC(=O)N1CCC2(CC1)CC(c1noc(-c3ccc(C(F)(F)F)cc3)n1)C2 [Example 49, N-(1-methyl-1H-tetrazol-5-yl)-2-{5-[4-(trifluoromethyl)phenyl]-1,2,4-oxadiazol-3-yl}-7-azaspiro[3.5]nonane-7-carboxamide] | 5240 | (+) | 552
Cc1noc(NC(=O)N2CCC3(CC2)CC(c2cccc(Cl)c2)C3)c1C [Example 13, 2-(3-chlorophenyl)-N-(3,4-dimethylisoxazol-5-yl)-7-azaspiro[3.5]nonane-7-carboxamide] | 3940 | (+) | 3560
Cc1cc(C2CC3(CCN(C(=O)Nc4onc(C)c4C)CC3)C2)ccc1F [Example 12, N-(3,4-dimethylisoxazol-5-yl)-2-(4-fluoro-3-methylphenyl)-7-azaspiro[3.5]nonane-7-carboxamide] | 3950 | (+) | 2990
Cc1noc(NC(=O)N2CCC3(CC2)CC(c2csc(-c4cccc(C(F)(F)F)c4)n2)C3)c1C [Example 36, N-(3,4-dimethylisoxazol-5-yl)-2-{2-[3-(trifluoromethyl)phenyl]-1,3-thiazol-4-yl}-7-azaspiro[3.5]nonane-7-carboxamide] | 2030 | (+) | 1160
Cc1noc(NC(=O)N2CCC3(CC2)CC(c2cccc(OC(F)(F)F)c2)C3)c1C [Example 4, N-(3,4-dimethylisoxazol-5-yl)-2-[3-(trifluoromethoxy)phenyl]-7-azaspiro[3.5]nonane-7-carboxamide] | 2830 | (+) | 3860
Cc1noc(NC(=O)N2CCC3(CC2)CC(c2cccc4c2OC(F)(F)O4)C3)c1C [Example 28, 2-(2,2-difluoro-1,3-benzodioxol-4-yl)-N-(3,4-dimethylisoxazol-5-yl)-7-azaspiro[3.5]nonane-7-carboxamide] | 2220 | (+) | 1060
Cc1noc(NC(=O)N2CCC3(CC2)CC(c2cccc(C(F)(F)F)c2F)C3)c1C [Example 30, N-(3,4-dimethylisoxazol-5-yl)-2-[2-fluoro-3-(trifluoromethyl)phenyl]-7-azaspiro[3.5]nonane-7-carboxamide] | 3240 | (+) | 2340
Cc1noc(NC(=O)N2CCC3(CC2)CC(c2cccc(F)c2F)C3)c1C [Example 19, 2-(2,3-difluorophenyl)-N-(3,4-dimethylisoxazol-5-yl)-7-azaspiro[3.5]nonane-7-carboxamide] | 2350 | (+) | 1370
Cn1nnnc1NC(=O)N1CCC2(CC1)CC(c1cccc(OC(F)(F)F)c1)C2 [Example 45, N-(1-methyl-1H-tetrazol-5-yl)-2-[3-(trifluoromethoxy)phenyl]-7-azaspiro[3.5]nonane-7-carboxamide] | 13200 | (+) | 4570
Cn1nnnc1NC(=O)N1CCC2(CC1)CC(c1noc(-c3ccc(OC(F)(F)F)cc3)n1)C2 [Example 50, N-(1-methyl-1H-tetrazol-5-yl)-2-{5-[4-(trifluoromethoxy)phenyl]-1,2,4-oxadiazol-3-yl}-7-azaspiro[3.5]nonane-7-carboxamide] | 16700 | (+) | 3530
CCc1cccc(C2CC3(CCN(C(=O)Nc4onc(C)c4C)CC3)C2)c1 [Example 22, N-(3,4-dimethylisoxazol-5-yl)-2-(3-ethylphenyl)-7-azaspiro[3.5]nonane-7-carboxamide] | 5670 | (−) | 1340
Cc1noc(NC(=O)N2CCC3(CC2)CC(c2noc(-c4ccc(C(F)(F)F)cc4)n2)C3)c1C [Example 33, N-(3,4-dimethylisoxazol-5-yl)-2-{5-[4-(trifluoromethyl)phenyl]-1,2,4-oxadiazol-3-yl}-7-azaspiro[3.5]nonane-7-carboxamide] | 1600 | (+) | 636
Cn1nnnc1NC(=O)N1CCC2(CC1)CC(c1ccc(F)c(Cl)c1)C2 [Example 48, 2-(3-chloro-4-fluorophenyl)-N-(1-methyl-1H-tetrazol-5-yl)-7-azaspiro[3.5]nonane-7-carboxamide] | 16300 | (+) | 5940
